Here are results for 34 molecules from patent US7550456B2, “Substituted aryl cycloalkanoyl derivatives and methods of their use” (Wyeth, priority 2003, dated 2009).

Molecules are shown by their SMILES. Counter-ions that a name gives are not always drawn.

One assay deals with T1, human hNET (Homo sapiens, UniProt P23975).
T1 construct: expressed in transfected cells; host or cells: MDCK-Net6 (MDCK cells, stably transfected)
T1 sequence (P23975 whole entry): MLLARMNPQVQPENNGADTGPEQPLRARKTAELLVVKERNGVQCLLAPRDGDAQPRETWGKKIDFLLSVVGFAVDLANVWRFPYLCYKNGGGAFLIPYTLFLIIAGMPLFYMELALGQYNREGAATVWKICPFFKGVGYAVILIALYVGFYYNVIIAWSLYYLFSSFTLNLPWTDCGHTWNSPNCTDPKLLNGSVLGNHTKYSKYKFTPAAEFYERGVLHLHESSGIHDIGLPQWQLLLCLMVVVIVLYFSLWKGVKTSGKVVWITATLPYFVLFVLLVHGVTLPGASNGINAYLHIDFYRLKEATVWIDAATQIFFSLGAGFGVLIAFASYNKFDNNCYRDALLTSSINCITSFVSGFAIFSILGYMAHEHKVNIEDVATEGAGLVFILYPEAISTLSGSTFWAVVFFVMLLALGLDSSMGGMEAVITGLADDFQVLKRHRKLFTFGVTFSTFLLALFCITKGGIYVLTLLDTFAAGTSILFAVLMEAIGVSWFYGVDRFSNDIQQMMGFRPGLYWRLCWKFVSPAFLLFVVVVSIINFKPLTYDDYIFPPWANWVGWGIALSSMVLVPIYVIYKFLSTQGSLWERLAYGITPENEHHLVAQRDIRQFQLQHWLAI
As to the kind of experiment: Norepinephrine (NE) uptake assay in MDCK-Net6 cells. Format: cell-based. Particulars: 1 μM test compound, [3H]NE uptake, read-out: % Inhibition @ 1 μM (hNET). The method in brief:
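Radiolabelled NE uptake was counted by scintillation after NaOH lysis, with 1 µM desipramine defining non-specific uptake. EC50 came from a logistic dose-response fit.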
Broadly, the inhibition is how much of the control response was suppressed. Take `CN1CCN(CC(c2ccc(-c3ccc(Cl)c(Cl)c3)cc2)C2(O)CCC2)CC1` (stereo not shown) [Example 296, 1-[1-(3′,4′-dichloro-1,1′-biphenyl-4-yl)-2-(4-methylpiperazin-1-yl)ethyl]cyclobutanol dihydrochloride]: the inhibition at 1 µM stood at 13%.
Consider `CN1CCN(CC(c2ccc(-c3cc(Cl)cc(Cl)c3)cc2)C2(O)CCC2)CC1` (stereo not shown) [Example 297, 1-[1-(3′,5′-dichloro-1,1′-biphenyl-4-yl)-2-(4-methylpiperazin-1-yl)ethyl]cyclobutanol dihydrochloride], for which the inhibition at 1 µM was found to be 4%.
On the same count and under the same terms, as for `C#Cc1cccc(C(CN2CCNCC2)C2(O)CCCCC2)c1` (stereo not shown) [Example 298, 1-[1-(3-ethynylphenyl)-2-piperazin-1-ylethyl]cyclohexanol dihydrochloride], the figure is 91%; as for `C#Cc1cccc(C(CN2CCN(C)CC2)C2(O)CCCCC2)c1` (stereo not shown) [Example 299, 1-[1-(3-ethynylphenyl)-2-(4-methylpiperazin-1-yl)ethyl]cyclohexanol dihydrochloride], 95%; as for `CC#Cc1cccc(C(CN2CCNCC2)C2(O)CCCCC2)c1` (stereo not shown) [Example 300, 1-[2-piperazin-1-yl-1-(3-prop-1-ynylphenyl)ethyl]cyclohexanol dihydrochloride], 38%.
Still for that read-out and setting: in the case of `CC#Cc1cccc(C(CN2CCN(C)CC2)C2(O)CCCCC2)c1` (stereo not shown) [Example 301, 1-[2-(4-methylpiperazin-1-yl)-1-(3-prop-1-ynylphenyl)ethyl]cyclohexanol dihydrochloride] it was 23%; in that of `OC1(C(CN2CCCN(Cc3ccccc3)CC2)c2ccc(OC(F)(F)F)cc2)CCCCC1` (stereo not shown) [Example 302, 1-{2-(4-benzyl-1,4-diazepan-1-yl)-1-[4(trifluoromethoxy)phenyl]ethyl}cyclohexanol dihydrochloride], 50%; in that of `OC1(C(CN2CCNCC2)c2ccc(OC(F)(F)F)cc2)CCC1` (stereo not shown) [Example 304, 1-{2-piperazin-1-yl-1-[4-(trifluoromethoxy)phenyl]ethyl}cyclobutanol dihydrochloride], 41%.
On to `OC1(C(CN2CCN(CC3CCCCC3)CC2)c2ccc(Oc3ccccc3)cc2)CCCCC1` (stereo not shown) [Example 309, 1-[2-[4-(cyclohexylmethyl)piperazin-1-yl]-1-(4-phenoxyphenyl)ethyl]cyclohexanol dihydrochloride], for which the inhibition at 1 µM was found to be 19.7%.
On the same count and under the same terms, as for `OC1(C(CN2CCNCC2)c2cccc(Oc3ccccc3)c2)CCCCC1` (stereo not shown) [Example 311, 1-[1-(3-phenoxyphenyl)-2-piperazin-1-ylethy]cyclohexanol dihydrochloride], the figure is 86.2%; as for `CN1CCN(CC(c2cccc(Oc3ccccc3)c2)C2(O)CCCCC2)CC1` (stereo not shown) [Example 312, 1-[2-(4-methylpiperazin-1-yl)-1-(3-phenoxyphenyl)ethy]cyclohexanol dihydrochloride], 57.3%.
Turning to `OC1(C(CN2CCN(CC3CCCCC3)CC2)c2cccc(Oc3ccccc3)c2)CCCCC1` (stereo not shown) [Example 313, 1-[2-[4-(cyclohexylmethyl)piperazin-1-yl]-1-(3-phenoxyphenyl)ethyl]cyclohexanol dihydrochloride], the inhibition at 1 µM came out at 57.3%.
For `CN1CCN(CC(c2ccc(OCc3ccccc3)cc2)C2(O)CCCCC2)CC1` (stereo not shown) [Example 322, 1-[2-(4-Methyl-1-piperazinyl)-1-[4-phenylmethoxy)phenyl]ethyl]cyclohexanol dihydrochloride], the inhibition at 1 µM worked out at 97.2%.
On to `OC1([C@@H](CN2CCNCC2)c2ccc(OCc3ccccc3)c(Cl)c2)CCCCC1` [Example 323, 1-{(1R)-1-[4-(benzyloxy)-3-chlorophenyl]-2-piperazin-1-ylethyl}cyclohexanol dihydrochloride], for which the inhibition at 1 µM came out at 95.8%.
Turning to `OC1([C@H](CN2CCNCC2)c2ccc(OCc3ccccc3)c(Cl)c2)CCCCC1` [Example 324, 1-{(1S)-1-[4-(benzyloxy)-3-chlorophenyl]-2-piperazin-1-ylethyl}cyclohexanol dihydrochloride], the inhibition at 1 µM was 98.4%.
Turning to `CN1CCN(C[C@@H](c2ccc(OCc3ccccc3)c(Cl)c2)C2(O)CCCCC2)CC1` [Example 325, 1-[(1R)-1-[4-(benzyloxy)-3-chlorophenyl]-2-(4-methylpiperazin-1-yl)ethyl]cyclohexanol dihydrochloride], the inhibition at 1 µM amounted to 93.9%.
On the same count and under the same terms, in the case of `CN1CCN(C[C@H](c2ccc(OCc3ccccc3)c(Cl)c2)C2(O)CCCCC2)CC1` [Example 326, 1-[(1S)-1-[4-(benzyloxy)-3-chlorophenyl]-2-(4-methylpiperazin-1-yl)ethyl]cyclohexanol dihydrochloride] it was 99.7%.
Same read-out and setting: in the case of `CC(CCN1CCN(C[C@H](c2cccc(OC(F)(F)F)c2)C2(O)CCCCC2)CC1)c1ccccc1` (stereo partly drawn) [Example 347, 1-{(1S)-2-[4-(3-phenylbutyl)piperazin-1-yl]-1-[3-(trifluoromethoxy)phenyl]ethyl}cyclohexanol dihydrochloride] it was 92%; in that of `C[C@H]1CN(C[C@H](c2cccc(OC(F)(F)F)c2)C2(O)CCCCC2)CCN1` [Example 348, 1-{(1S)-2-[(3S)-3-methylpiperazin-1-yl]-1-[3-(trifluoromethoxy)phenyl]ethyl}cyclohexanol dihydrochloride], 91%; in that of `C[C@H]1CN(C[C@H](c2cccc(OC(F)(F)F)c2)C2(O)CCCCC2)CCN1C` [Example 349, 1-{(1S)-2-[(3S)-3,4-dimethylpiperazin-1-yl]-1-[3-(trifluoromethoxy)phenyl]ethyl}cyclohexanol dihydrochloride], 82%.
For `CCC1CN(C[C@H](c2cccc(OC(F)(F)F)c2)C2(O)CCCCC2)CCN1` (stereo partly drawn) [Example 350, 1-{(1S)-2-(3-ethylpiperazin-1-yl)-1-[3-(trifluoromethoxy)phenyl]ethyl}cyclohexanol dihydrochloride], the inhibition at 1 µM is 79%.
For `CC[C@H]1CN(C[C@H](c2cccc(OC(F)(F)F)c2)C2(O)CCCCC2)CCN1C` [Example 351, 1-{(1S)-2-[(3S)-3-ethyl-4-methylpiperazin-1-yl]-1-[3-(trifluoromethoxy)phenyl]ethyl}cyclohexanol dihydrochloride], the inhibition at 1 µM turned out to be 61%.
On to `CC[C@@H]1CN(C[C@H](c2cccc(OC(F)(F)F)c2)C2(O)CCCCC2)CCN1C` [Example 352, 1-{(1S)-2-[(3R)-3-ethyl-4-methylpiperazin-1-yl]-1-[3-(trifluoromethoxy)phenyl]ethyl}cyclohexanol dihydrochloride], for which the inhibition at 1 µM was determined as 68%.
With `CC(C)N1CCN(CC(c2cccc(OC(F)(F)F)c2)C2(O)CCCCC2)CC1` (stereo not shown) [Example 362, 1-{2-(4-isopropylpiperazin-1-yl)-1-[3-(trifluoromethoxy)phenyl]ethyl}cyclohexanol dihydrochloride], the inhibition at 1 µM amounted to 51%.
The same measure, in the same setting: as for `C[C@@H](c1ccccc1)N1CCN(C[C@H](c2cccc(OC(F)(F)F)c2)C2(O)CCCCC2)CC1` [Example 363, 1-{(1S)-2-{4-[(1S)-1-phenylethyl]piperazin-1-yl}-1-[3-(trifluoromethoxy)phenyl]ethyl}cyclohexanol dihydrochloride], the figure is 42%; as for `C[C@@H]1CN(C[C@H](c2cccc(OC(F)(F)F)c2)C2(O)CCCCC2)C[C@H](C)N1` [Example 367, 1-{(1S)-2-[(3R,5S)-3,5-dimethylpiperazin-1-yl]-1-[3-(trifluoromethoxy)phenyl]ethyl}cyclohexanol dihydrochloride], 94%; as for `C[C@@H]1CN(C[C@H](c2cccc(OC(F)(F)F)c2)C2(O)CCCCC2)C[C@H](C)N1C` [Example 368, 1-{(1S)-1-[3-(trifluoromethoxy)phenyl]-2-[(3R,5S)-3,4,5-trimethylpiperazin-1-yl]ethyl}cyclohexanol dihydrochloride], 93%.
Consider `C[C@@H]1CN(C[C@H](c2cccc(OC(F)(F)F)c2)C2(O)CCCCC2)CCN1` [Example 369, 1-{(1S)-2-[(3R)-3-methylpiperazin-1-yl]-1-[3-(trifluoromethoxy)phenyl]ethyl}cyclohexanol dihydrochloride], for which the inhibition at 1 µM is 90%.
Still for that read-out and setting: as for `C[C@@H]1CN(C[C@H](c2cccc(OC(F)(F)F)c2)C2(O)CCCCC2)CCN1C` [Example 370, 1-{(1S)-2-[(3R)-3,4-dimethylpiperazin-1-yl]-1-[3-(trifluoromethoxy)phenyl]ethyl}cyclohexanol dihydrochloride], the figure is 79%; as for `OC1([C@H](CN2CCN3CCCCC3C2)c2cccc(OC(F)(F)F)c2)CCCCC1` (stereo partly drawn) [Example 371, 1-{(1S)-2-(octahydro-2H-pyrido[1,2-a]pyrazin-2-yl)-1-[3-(trifluoromethoxy)phenyl]ethyl}cyclohexanol dihydrochloride], 78%; as for `CC(C)(CO)N1CCN(CC(c2cccc(OC(F)(F)F)c2)C2(O)CCCCC2)CC1` (stereo not shown) [Example 373, 1-{2-[4-(2-hydroxy-1,1-dimethylethyl)piperazin-1-yl]-1-[3-(trifluoromethoxy)phenyl]ethyl}cyclohexanol dihydrochloride], 90%.

The same assay, now with this note: 10 μM test compound (stated in the cell), [3H]NE uptake.
Consider `CN1CCN(CC(c2ccc(-c3cccc(OC(F)(F)F)c3)cc2)C2(O)CCC2)CC1` (stereo not shown) [Example 295, 1-{2-(4-methylpiperazin-1-yl)-1-[3′-(trifluoromethoxy)-1,1′-biphenyl-4-yl]ethyl}cyclobutanol dihydrochloride], for which 10 µM produced 2% inhibition.
Turning to `OC1(C(CN2CCNCC2)c2ccc(Oc3ccccc3)cc2)CCCCC1` (stereo not shown) [Example 307, 1-[1-(4-phenoxyphenyl)-2-piperazin-1-ylethyl]cyclohexanol dihydrochloride], the inhibition at 10 µM was 44.5%.
For `CN1CCN(CC(c2ccc(Oc3ccccc3)cc2)C2(O)CCCCC2)CC1` (stereo not shown) [Example 308, 1-[2-(4-methylpiperazin-1-yl)-1-(4-phenoxyphenyl)ethy]cyclohexanol dihydrochloride], the inhibition at 10 µM stood at 35.9%.
